Laboratory results reported in PubChem BioAssay (NCI).
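Where inhibition never reached the appropriate level, the endpoint shown equals the highest concentration tested. Otherwise, values were interpolated linearly from a five-concentration, 48-hour dose response in 96-well plates. At the GI50, growth is halved. At the TGI there is no net growth.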

What was measured:
Assay in all cases: NCI-60 cell line screen, 48 h
HOP-92 NSCLC = system: HOP-92 NSCLC
OVCAR-5 ovarian = system: OVCAR-5 ovarian
DU-145 prostate = system: DU-145 prostate
CAKI-1 renal = system: CAKI-1 renal
HL-60(TB) leukemia = system: HL-60(TB) leukemia
UO-31 renal = system: UO-31 renal
CCRF-CEM leukemia = system: CCRF-CEM leukemia
MDA-MB-435 = system: MDA-MB-435
BT-549 breast = system: BT-549 breast
RXF 393 renal = system: RXF 393 renal
OVCAR-4 ovarian = system: OVCAR-4 ovarian
OVCAR-3 ovarian = system: OVCAR-3 ovarian
SK-MEL-28 melanoma = system: SK-MEL-28 melanoma
COLO 205 colon = system: COLO 205 colon
UACC-62 melanoma = system: UACC-62 melanoma
HOP-62 NSCLC = system: HOP-62 NSCLC
NCI/ADR-RES ovarian = system: NCI/ADR-RES ovarian
UACC-257 melanoma = system: UACC-257 melanoma
SN12C renal = system: SN12C renal
SF-539 CNS = system: SF-539 CNS
LOX IMVI melanoma = system: LOX IMVI melanoma
HCT-15 colon = system: HCT-15 colon
SF-268 CNS = system: SF-268 CNS
NCI-H226 lung = system: NCI-H226 lung
SNB-75 CNS = system: SNB-75 CNS
NCI-H460 lung = system: NCI-H460 lung
NCI-H23 lung = system: NCI-H23 lung
SK-OV-3 ovarian = system: SK-OV-3 ovarian
MOLT-4 leukemia = system: MOLT-4 leukemia
SNB-19 CNS = system: SNB-19 CNS
SR leukemia = system: SR leukemia
HCC-2998 colon = system: HCC-2998 colon
A498 renal = system: A498 renal
NCI-H522 lung = system: NCI-H522 lung
M14 melanoma = system: M14 melanoma
TK-10 renal = system: TK-10 renal
T-47D breast = system: T-47D breast
SW-620 colon = system: SW-620 colon
SF-295 CNS = system: SF-295 CNS
HS 578T breast = system: HS 578T breast
ACHN renal = system: ACHN renal
PC-3 prostate = system: PC-3 prostate
786-0 renal = system: 786-0 renal
SK-MEL-2 melanoma = system: SK-MEL-2 melanoma
HT29 colon = system: HT29 colon
IGROV1 ovarian = system: IGROV1 ovarian
U251 CNS = system: U251 CNS
K-562 leukemia = system: K-562 leukemia
HCT-116 colon = system: HCT-116 colon
RPMI-8226 leukemia = system: RPMI-8226 leukemia

Structure (SMILES): OC(c1cc2cc(Br)ccc2c2cc(Br)ccc12)C1CCCCN1 (stereo not drawn)
- GI50 (HOP-92 NSCLC): 1.21 µM
- TGI (HOP-92 NSCLC): 2.67 µM
- GI50 (OVCAR-5 ovarian): 1.58 µM
- TGI (OVCAR-5 ovarian): 3.13 µM
- GI50 (DU-145 prostate): 1.95 µM
- TGI (DU-145 prostate): 3.43 µM
- GI50 (CAKI-1 renal): 1.76 µM
- TGI (CAKI-1 renal): 3.54 µM
- GI50 (HL-60(TB) leukemia): 1.75 µM
- TGI (HL-60(TB) leukemia): 3.43 µM
- GI50 (UO-31 renal): 1.46 µM
- TGI (UO-31 renal): 3.18 µM

Structure (SMILES): COc1ccc2nc3cc(Cl)ccc3c(NCCCNCc3cc(OC)c(OC)c(OC)c3)c2c1
- TGI (CCRF-CEM leukemia): > 100 µM
- TGI (OVCAR-5 ovarian): 3.11 µM
- TGI (MDA-MB-435): 3.24 µM

Structure (SMILES): CCCCCCCCCCCCN1C(C)=CS/C1=C\C=C\c1scc(C)[n+]1CCCCCCCCCCCC
- GI50 (BT-549 breast): 1.54 µM
- TGI (BT-549 breast): 7.17 µM
- GI50 (RXF 393 renal): 1.42 µM
- TGI (RXF 393 renal): 5.29 µM
- GI50 (OVCAR-4 ovarian): 1.43 µM
- TGI (OVCAR-4 ovarian): 13.2 µM
- GI50 (OVCAR-3 ovarian): 1.24 µM
- TGI (OVCAR-3 ovarian): 3.69 µM
- GI50 (SK-MEL-28 melanoma): 2.74 µM
- TGI (SK-MEL-28 melanoma): 17.3 µM
- GI50 (COLO 205 colon): 1.26 µM
- TGI (COLO 205 colon): 4.13 µM
- GI50 (HOP-92 NSCLC): 0.864 µM
- TGI (HOP-92 NSCLC): 3.77 µM
- GI50 (CCRF-CEM leukemia): 1.98 µM
- TGI (CCRF-CEM leukemia): > 100 µM
- GI50 (UACC-62 melanoma): 1.1 µM
- TGI (UACC-62 melanoma): 3.41 µM
- GI50 (HOP-62 NSCLC): 3.51 µM
- TGI (HOP-62 NSCLC): 28.7 µM
- GI50 (NCI/ADR-RES ovarian): 3.06 µM
- TGI (NCI/ADR-RES ovarian): 34.4 µM
- GI50 (OVCAR-5 ovarian): 2.3 µM
- TGI (OVCAR-5 ovarian): 9.43 µM
- GI50 (UACC-257 melanoma): 1.72 µM
- TGI (UACC-257 melanoma): 5.68 µM
- GI50 (SN12C renal): 1.65 µM
- TGI (SN12C renal): 4.2 µM
- GI50 (SF-539 CNS): 2.02 µM
- TGI (SF-539 CNS): 8.69 µM
- GI50 (LOX IMVI melanoma): 1.79 µM
- TGI (LOX IMVI melanoma): 5.96 µM
- GI50 (HCT-15 colon): 2.32 µM
- TGI (HCT-15 colon): 21.6 µM
- GI50 (SF-268 CNS): 1.98 µM
- TGI (SF-268 CNS): 5.7 µM
- GI50 (NCI-H226 lung): 2.34 µM
- TGI (NCI-H226 lung): > 100 µM
- GI50 (SNB-75 CNS): 1.2 µM
- TGI (SNB-75 CNS): 4.96 µM
- GI50 (NCI-H460 lung): 1.43 µM
- TGI (NCI-H460 lung): 3.51 µM
- GI50 (NCI-H23 lung): 0.999 µM
- TGI (NCI-H23 lung): 4.99 µM
- GI50 (SK-OV-3 ovarian): 2.74 µM
- TGI (SK-OV-3 ovarian): 22.9 µM
- GI50 (DU-145 prostate): 2.38 µM
- TGI (DU-145 prostate): 10.5 µM
- GI50 (MOLT-4 leukemia): 2.55 µM
- TGI (MOLT-4 leukemia): > 100 µM
- GI50 (SNB-19 CNS): 1.91 µM
- TGI (SNB-19 CNS): 10.3 µM
- GI50 (SR leukemia): 1.12 µM
- TGI (SR leukemia): > 100 µM
- GI50 (MDA-MB-435): 1.21 µM
- TGI (MDA-MB-435): 3.68 µM
- GI50 (HCC-2998 colon): 2.11 µM
- TGI (HCC-2998 colon): 11 µM
- GI50 (A498 renal): 0.822 µM
- TGI (A498 renal): 4.09 µM
- GI50 (NCI-H522 lung): 1.7 µM
- TGI (NCI-H522 lung): 5.11 µM
- GI50 (CAKI-1 renal): 1.74 µM
- TGI (CAKI-1 renal): 12.8 µM
- GI50 (M14 melanoma): 1.34 µM
- TGI (M14 melanoma): 4.61 µM
- GI50 (TK-10 renal): 0.934 µM
- TGI (TK-10 renal): 3.9 µM
- GI50 (T-47D breast): 0.817 µM
- TGI (T-47D breast): 6.77 µM
- GI50 (SW-620 colon): 1.71 µM
- TGI (SW-620 colon): 7.19 µM
- GI50 (UO-31 renal): 2.4 µM
- TGI (UO-31 renal): 12.4 µM
- GI50 (SF-295 CNS): 1.53 µM
- TGI (SF-295 CNS): 5.35 µM
- GI50 (HS 578T breast): 1.77 µM
- TGI (HS 578T breast): 6.62 µM
- GI50 (ACHN renal): 1.84 µM
- TGI (ACHN renal): 10.4 µM
- GI50 (PC-3 prostate): 1.03 µM
- TGI (PC-3 prostate): 3.46 µM
- GI50 (786-0 renal): 2.17 µM
- TGI (786-0 renal): 7.37 µM

Structure (SMILES): Cc1ccccc1NC(=O)NC(Oc1ccccc1)(C(F)(F)F)C(F)(F)F
- TGI (BT-549 breast): > 100 µM
- TGI (RXF 393 renal): > 100 µM
- TGI (SK-MEL-2 melanoma): > 100 µM
- TGI (HT29 colon): > 100 µM
- TGI (SK-MEL-28 melanoma): > 100 µM
- TGI (COLO 205 colon): > 100 µM
- TGI (CCRF-CEM leukemia): > 100 µM
- TGI (NCI/ADR-RES ovarian): > 100 µM
- TGI (OVCAR-5 ovarian): > 100 µM
- TGI (UACC-257 melanoma): > 100 µM
- TGI (SF-539 CNS): > 100 µM
- TGI (SF-268 CNS): > 100 µM
- TGI (SNB-75 CNS): > 100 µM
- TGI (NCI-H23 lung): > 100 µM
- TGI (SK-OV-3 ovarian): > 100 µM
- TGI (IGROV1 ovarian): > 100 µM
- TGI (U251 CNS): > 100 µM
- TGI (MOLT-4 leukemia): > 100 µM
- TGI (SNB-19 CNS): > 100 µM
- TGI (K-562 leukemia): > 100 µM
- TGI (SR leukemia): > 100 µM
- TGI (MDA-MB-435): > 100 µM
- TGI (HCC-2998 colon): > 100 µM
- TGI (A498 renal): > 100 µM
- TGI (HCT-116 colon): > 100 µM
- TGI (CAKI-1 renal): 97.5 µM
- TGI (HL-60(TB) leukemia): > 100 µM
- TGI (M14 melanoma): > 100 µM
- TGI (T-47D breast): > 100 µM
- TGI (RPMI-8226 leukemia): > 100 µM
- TGI (UO-31 renal): > 100 µM
- TGI (HS 578T breast): > 100 µM
- TGI (ACHN renal): > 100 µM
- TGI (786-0 renal): > 100 µM
